Test results published in patent US5610174A, “Use of α1A -selective adrenoceptor agonists for the treatment of urinary incontinence” (priority 1995, dated 1997).
Read-outs that look alike come from different tables or passages of the source.

What was measured:
human α1C adrenoceptor = target: T1, human α1C adrenoceptor (Homo sapiens, UniProt P35348); assay: biochemical; format: binding
T1 sequence (P35348 1-466): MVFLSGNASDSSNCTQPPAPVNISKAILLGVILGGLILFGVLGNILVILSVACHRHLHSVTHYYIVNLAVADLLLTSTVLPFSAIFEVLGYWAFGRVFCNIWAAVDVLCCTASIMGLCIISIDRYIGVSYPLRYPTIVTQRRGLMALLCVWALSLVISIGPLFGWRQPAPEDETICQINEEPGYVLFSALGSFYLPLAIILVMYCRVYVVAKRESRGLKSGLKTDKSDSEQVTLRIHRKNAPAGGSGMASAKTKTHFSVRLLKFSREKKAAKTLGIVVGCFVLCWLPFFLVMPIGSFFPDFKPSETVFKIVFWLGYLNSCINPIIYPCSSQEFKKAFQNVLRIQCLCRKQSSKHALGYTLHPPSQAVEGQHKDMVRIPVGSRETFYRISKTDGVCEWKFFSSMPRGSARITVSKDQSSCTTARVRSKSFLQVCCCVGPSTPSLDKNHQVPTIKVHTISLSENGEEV
Procedure: These cell lines were prepared by transfecting the cloned cDNA or cloned genomic DNA or constructs containing both genomic DNA and cDNA encoding the human α-adrenoceptors as follows:
The construct involved ligating three partial overlapping fragments: a 5' 0.6 kb HincII genomic clone, a central 1.8 EcoRI hippocampal cDNA clone, and a 3' 0.6 Kb PstI genomic clone. The hippocampal cDNA fragment overlaps with the 5' and 3' genomic clones so that the HincII and PstI sites at the 5' and 3' ends of the cDNA clone, respectively, were utilized for ligation. This full-length clone was cloned into the KpnI site of the expression vector, using the 5' and 3' KpnI sites of the fragment, derived from vector (i.e., pBluescript) and 3'-untranslated sequences, respectively. Stable cell lines were obtained as described above.
Transfected cells from culture flasks were scraped into 5 ml of 5 mM Tris-HCl, 5 mM EDTA, pH 7.5, and lysed by sonication. The cell lysates were centrifuged at 1000 rpm. for 5 min at 4° C., and the supernatant was centrifuged at 30,000 ×g for 20 min at 4° C. The pellet was suspended in 50 mM Tris-HCl , 1 mM MgCl2, and 0.1% ascorbic acid at pH 7.5. […] The reaction was stopped by filtration through GF/B filters using a cell harvester.

human α1A adrenoceptor = target: T2, human α1A adrenoceptor (Homo sapiens, UniProt P25100); assay: cell-based; format: cell-based; conditions: for Emax: read-out: intrinsic activity (i.a.) α1A; for stimulation of inositol phosphate production, α1A: result in words
T2 sequence (P25100 1-572): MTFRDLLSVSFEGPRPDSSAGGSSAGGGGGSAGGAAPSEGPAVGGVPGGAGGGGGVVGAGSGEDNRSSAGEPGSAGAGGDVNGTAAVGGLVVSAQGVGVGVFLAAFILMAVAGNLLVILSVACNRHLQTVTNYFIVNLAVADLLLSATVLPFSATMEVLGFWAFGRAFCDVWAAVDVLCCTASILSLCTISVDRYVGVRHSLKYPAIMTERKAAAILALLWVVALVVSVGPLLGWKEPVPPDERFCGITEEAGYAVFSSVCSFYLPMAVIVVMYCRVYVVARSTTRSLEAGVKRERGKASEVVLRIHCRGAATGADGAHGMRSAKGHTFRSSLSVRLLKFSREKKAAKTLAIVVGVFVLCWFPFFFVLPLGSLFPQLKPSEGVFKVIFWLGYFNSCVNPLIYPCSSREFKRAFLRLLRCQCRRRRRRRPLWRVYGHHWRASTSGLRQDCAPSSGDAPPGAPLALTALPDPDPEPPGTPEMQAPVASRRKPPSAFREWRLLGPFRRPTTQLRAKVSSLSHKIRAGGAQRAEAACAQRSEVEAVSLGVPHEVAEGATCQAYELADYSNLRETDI
Procedure: (§1) α1 -Adrenoceptor-Mediated Phosphoinositide Accumulation in Cultured Cell Lines
(§2) The agonist activity of test compounds was assayed by measuring their ability to generate phosphoinositide production in cells stably transfected with each of the three cloned human α1 -adrenoceptor subtypes. Cells were plated in 96-well plates and grown to confluence. The day before the assay the growth medium was changed to 100 μl of medium containing 1% serum and 0.5 μCi [^3 H] myo-inositol, and the plates were incubated overnight in a CO2 incubator (5% CO2 at 37° C.). Immediately before the assay, the medium was removed and replaced by 200 μl of PBS containing 10 mM LiCl, and the cells were equilibrated with the new medium for 20 min. During this interval cells were also equilibrated with the antagonist, added as 10 μl aliquot of a 20-fold concentrated solution in PBS.
(§3) The [^3 H] inositol-phosphate (IP) accumulation was started by adding 10 μl of a solution containing the agonist. To the first well 10 μl were added to measure basal accumulation, and 11 different concentrations of agonist were assayed in the following 11 wells of each plate row. All assays were performed in duplicate by repeating the same additions in two consecutive plate rows. The plates were incubated in a CO2 incubator for 1 hr. The reaction was terminated by adding 15 μl of 50% (v/v) trichloroacetic acid (TCA), followed by a 40 min incubation at 4° C.
(§4) After neutralizing TCA with 40 μl of 1 M Tris, the content of the wells was transferred to a Multiscreen HV filter plate (Millipore) containing Dowex AG1-X8 (200-400 mesh, formate form). The filter plates were prepared adding 200 μl of Dowex AG1-X8 suspension (50% v/v, water:resin) to each well. The filter plates were placed on a vacuum manifold to wash or eluted the resin bed. Each well was washed 2 times with 200 μl of water, followed by 2×200 μ of 5 mM sodium tetraborate/60 mM ammonium formate. The [3H] IPs were eluted into empty 96-well plates with 200 μl of 1.2 M ammonium formate/0.1 formic acid. The content of the wells was added to 3 mls of scintillation cocktail, and the radioactivity was determined by liquid scintillation counting.

human α1B adrenoceptor = target: T3, human α1B adrenoceptor (Homo sapiens, UniProt P35368); assay: Phosphoinositide accumulation in cells expressing α1B; format: cell-based; conditions: for Emax: read-out: intrinsic activity (i.a.) α1B; for stimulation of inositol phosphate production, α1B: result in words
T3 construct: The entire coding region of the α1B receptor (1563 bp); expressed in transfected cells
T3 sequence (P35368 1-520): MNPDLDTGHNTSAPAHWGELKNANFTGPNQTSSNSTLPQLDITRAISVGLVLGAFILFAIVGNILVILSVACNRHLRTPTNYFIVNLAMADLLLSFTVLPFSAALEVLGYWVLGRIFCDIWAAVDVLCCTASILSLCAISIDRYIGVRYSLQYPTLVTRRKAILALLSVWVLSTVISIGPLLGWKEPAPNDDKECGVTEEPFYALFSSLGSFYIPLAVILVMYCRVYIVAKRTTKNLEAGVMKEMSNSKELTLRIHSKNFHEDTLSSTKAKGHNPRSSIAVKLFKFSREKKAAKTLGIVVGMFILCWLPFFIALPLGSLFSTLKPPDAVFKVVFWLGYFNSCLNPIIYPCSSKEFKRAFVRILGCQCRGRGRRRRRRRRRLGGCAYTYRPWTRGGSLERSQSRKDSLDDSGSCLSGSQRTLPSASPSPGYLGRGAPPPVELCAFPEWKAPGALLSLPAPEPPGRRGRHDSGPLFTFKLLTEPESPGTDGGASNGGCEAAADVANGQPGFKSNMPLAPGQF
Procedure: as §1, §2, §3, §4

[1] = relative to reference full agonist (e.g., norepinephrine = unity)
[2] = agonist, phosphoinositide accumulation, read-out: pEC50 α1A (converted)

Compound	Emax (human α1A adrenoceptor) [%]	Emax (human α1B adrenoceptor) [%]	EC50 (human α1A adrenoceptor) [µM]	EC50 (human α1B adrenoceptor) [µM]	Ki (human α1C adrenoceptor) [µM]	other results
COc1cc2c(cc1OC)CN(c1cc(N)c3cc(OC)c(OC)cc3n1)CC2 [Abanoquil, 2-(6,7-Dimethoxy-3,4-dihydro-1H-isoquinolin-2-yl)-6,7-dimethoxyquinolin-4-ylamine hemifumarate hydrate]	–	–	–	–	–	pKI (antagonist affinity, 3H-prazosin binding) hα1C (human α1C adrenoceptor; Table 2, antagonists, versus 3H-prazosin): 10.4
CNC[C@H](O)c1cccc(O)c1 [(-)-phenylephrine]	–	–	–	–	–	Emax (human α1A adrenoceptor; [1]): 70%; Emax (human α1B adrenoceptor; [1]): 90%
COc1ccc(SC)c2c1C[C@@H]1[C@@H](C2)OCCN1C (relative stereo) [SDZ NVI-085, (±)-trans-4-Methyl-6-methoxy-9-thiomethoxy-3,4,4a, 5,10,10a-hexahydro-2H-naphtho[2,3-b][1,4]oxazine]	0	0	–	–	–	EC50 (human α1A adrenoceptor; [2]): > 100 µM; EC50 (human α1B adrenoceptor; agonist, phosphoinositide accumulation, read-out: pEC50 α1B (converted)): > 100 µM; Ki (human α1C adrenoceptor; Table 3, agonists, read-out: pKi α1C (converted)): 1.26 µM
COc1ccc(OC)c(C(O)CN)c1 (racemic) [ST-1059, (±)-2-Amino-1-(2, 5 dimethoxyphenyl) ethanol]	10	10	1.58	6.31	7.94	–
CNCCc1ccc(O)c(NS(C)(=O)=O)c1 [SK&F 102652]	10	10	–	–	–	stimulation of inositol phosphate production, α1A (human α1A adrenoceptor): virtually inactive; stimulation of inositol phosphate production, α1B (human α1B adrenoceptor): virtually inactive
COc1ccccc1N1CCN(CCCNc2c(C)c(=O)n(C)c(=O)n2C)CC1 [Compound 5-MU]	–	–	–	–	–	Ki (human α1C adrenoceptor; Table 2, antagonists, versus 3H-prazosin, read-out: pKI (antagonist affinity, 3H-prazosin binding) hα1C (converted)): 0.002 µM
CN[C@@H](C)[C@H](O)c1ccccc1 [(-)-ephedrine]	10	20	100	100	25.1	–
CS(=O)(=O)Nc1c(O)ccc2c1CCCC2C1=NCCN1 (racemic) [Compound A-61603, (±)-N-[5-(4,5-Dihydro-1H-imidazol-2-yl)-2-hydroxy-5,6,7,8-tetra-hydronaphthalen-1-yl]methanesulfonamide]	–	–	–	39.8	–	EC50 (human α1A adrenoceptor; [2]): 25.1 µM; Emax (human α1A adrenoceptor; [1]): 10%; stimulation of inositol phosphate production, α1A (human α1A adrenoceptor): virtually inactive; Emax (human α1B adrenoceptor; [1]): 10%; stimulation of inositol phosphate production, α1B (human α1B adrenoceptor): virtually inactive
C[C@H](N)[C@H](O)c1ccccc1 [(-)-norephedrine]	30	0	15.8	31.6	15.8	–
